We go through 1 molecule from article PMC9146377, “Design and Synthesis of Novel Bis-Imidazolyl Phenyl Butadiyne Derivatives as HCV NS5A Inhibitors” (Pharmaceuticals, 2022).

Where two headings read alike, the source gives them in different places.

Experiment [1] concerns HCV genotype 1a (strain H77S.3) full-length reporter viral RNA. The experiment can be described thus: microbe, parasite or virus in culture. In kind it is cell-based, Hepatitis C virus.
Experiment [2] relates to NS5A protein expression, HCV Con1 (GT 1b). Put plainly: Indirect immunofluorescence for NS5A in Huh5-2 replicon cells. Format: cell-based, Hepatitis C virus. The following applies: 10-fold serial dilutions, confocal microscopy. The method, then: (§1) The potency of compound 10a measured by the luciferase assay in HCV GT 1b was confirmed at the level of viral RNA and NS5A protein expression. Huh5-2 replicon cells were treated with 10a in serial dilutions, or its solvent DMSO (control), and viral RNA was quantified by reverse transcription-quantitative polymerase chain reaction (RT-qPCR). NS5A protein levels were evaluated by indirect immunofluorescence combined with confocal microscopy analysis. […] Nuclei were stained with propidium iodide (PI) as a cell viability control.
An indirect immunofluorescence analysis of Con1 NS5A was performed as described previously. Propidium iodide (Sigma-Aldrich, St. Louis, MO, USA) was used to stain the DNA. Images were obtained with a Leica TCS-SP8 Confocal Microscope (Wetzlar, Germany).
Figure 6 Inhibition of HCV RNA and protein expression levels exerted by compound 10a in HCV Con1 (GT 1b) subgenomic replicon cell line. (A) RT-qPCR analysis of (+) strand HCV RNA levels in Huh5-2 replicon cells treated with 10-fold serial dilutions of compound 10a or the solvent DMSO. Values are expressed as a percentage of those obtained from cells treated with the solvent (control). The housekeeping gene YWHAZ (tyrosine 3-monooxygenase/tryptophan 5-monooxygenase activation protein zeta) was used as a normalization control. […]

The test system of experiment [3] is (+) strand HCV RNA, Con1 (GT 1b) subgenomic replicon. Put plainly: RT-qPCR quantification of HCV RNA in Huh5-2 replicon cells. Format: cell-based, Hepatitis C virus. The settings on record: normalized to YWHAZ. The protocol: as §1
Extraction of total RNA from Huh5-2 cells was performed using TRIzol reagent (Ambion, Austin, TX, USA), according to the manufacturer’s instructions. Replicon RNA was quantified with reverse transcription (RT) and quantitative real-time polymerase chain reaction (qPCR). RT was performed using a Con1 IRES-specific primer (IRES-R: 5′-[…]-3′) and Moloney Murine Leukemia Virus (MMLV) reverse transcriptase (Promega). […]
Figure 6 Inhibition of HCV RNA and protein expression levels exerted by compound 10a in HCV Con1 (GT 1b) subgenomic replicon cell line. […] Values are expressed as a percentage of those obtained from cells treated with the solvent (control). […]

The test system of experiment [4] is subgenomic replicon of HCV GT 3a (strain S52). The experiment can be described thus: Anti-HCV luciferase assay, genotype 3a replicon in Huh7.5-3a cells. In kind it is cell-based. The settings on record: Hepatitis C virus, GT3A, read-out: Gt3a EC50. The protocol: Specifically, we determined the activity of 10a against viral replication by measuring luciferase activity in Huh7-JFH1, Huh7.5-3a, and Huh7.5-4a stable cell lines containing subgenomic replicons of HCV GT 2a (strain JFH1), GT 3a (strain S52) and GT 4a (strain ED43), respectively. In addition, the activity of 10a was determined in Huh7-Lunet cells electroporated with the in vitro transcribed full-length reporter viral RNA of HCV genotype 1a (strain H77S.3). […]
The anti-HCV assay in replicon cells was performed by seeding 1 × 10^4 cells per well in a 96-well plate. […] Cells were lysed after 72 h, and F-Luc activity was measured. […] At 72 h post-treatment, cell supernatants were collected, and G-Luc activity was measured. In addition, the cells were lysed for total protein quantification.
Relative luminescence units (RLU) were expressed as a percentage of the respective units derived from DMSO-treated cells (control). […]
The F-Luc activity was measured using the Luciferase Assay System (Promega, Madison, WI, USA), as recommended by the manufacturer. The G-Luc activity was measured using 12 μM coelenterazine (Promega) in assay buffer (50 mM potassium phosphate, pH 7.4, 500 mM NaCl, 1 mM EDTA). […] The F-Luc activity was normalized to the total protein amount determined using the Bradford assay reagent (Pierce, Waltham, MA, USA).
A general note: Replicon systems follow genome replication, usually without infectious particles.

Experiment [5] has as its system HCV genotype 1b Con-1 subgenomic replicon. Put plainly: Anti-HCV luciferase assay, genotype 1b (Con1) subgenomic replicon in Huh5-2 cells. Format: cell-based, Hepatitis C virus. The settings on record: mean of three experiments. The protocol: All synthesized compounds were tested against HCV genotype 1b Con-1 subgenomic replicon in the Huh-5-2 stable cell line. Specifically, their activity against viral replication was estimated by measuring firefly luciferase, which is co-expressed by the bicistronic replicon, and their half-maximal effective concentrations (EC50) were determined. In parallel, the half-maximal cytotoxic concentrations (CC50) of the compounds were estimated, and their selective indexes (SI50: CC50/ EC50) were calculated. All novel synthesized compounds were active against HCV 1b with EC50 < 1 µM except for compound 4b (Table 3).
Huh5-2 [65] and Huh7-JFH1 [66] stable cell lines harbor the subgenomic HCV reporter replicon I389luc-ubi-neo/NS3-3′/Con1/5.1 (genotype 1b; strain Con1) and I389luc-ubi-neo/NS3-3′_dg_JFH1 (genotype 2a, JFH1 strain), respectively (kindly provided by R. Bartenschlager, Heidelberg University, Heidelberg, Germany). Huh7.5-3a and Huh7.5-4a stable cell lines harbor the subgenomic HCV reporter replicon S52-SG (Feo) (AII) (genotype 3a; S52 strain) and ED43-SG (Feo) (VYG) (genotype 4a; ED43 strain), respectively (viral constructs kindly provided by C.M. Rice, Rockefeller University, New York, NY, USA). These replicons carry as a first cistron firefly luciferase (F-Luc) and neomycin phosphotransferase genes under the translational control of the HCV internal ribosome entry site (IRES), followed by HCV NS3 to NS5B proteins under the control of the EMCV IRES.
The anti-HCV assay in replicon cells was performed by seeding 1 × 10^4 cells per well in a 96-well plate. After 24 h of incubation at 37 °C (5% CO2) and medium removal, serial dilutions of the test compounds in complete DMEM were added. Cells were lysed after 72 h, and F-Luc activity was measured. The anti-HCV assay for the full-length viral construct H77S.3/GLuc2A was performed after electroporation of Huh7-Lunet cells with viral RNA. Cells were seeded in 96-well plates, the medium was removed 24 h after electroporation, and serial dilutions of the compounds in complete DMEM were added. At 72 h post-treatment, cell supernatants were collected, and G-Luc activity was measured. In addition, the cells were lysed for total protein quantification.
Relative luminescence units (RLU) were expressed as a percentage of the respective units derived from DMSO-treated cells (control). The half-maximal effective concentration (EC50), defined as the concentration of compound that reduces luciferase signal by 50%, was calculated by dose-response curve analysis using Prism 5.0 software (GraphPad Software Inc., San Diego, CA, USA).
The F-Luc activity was measured using the Luciferase Assay System (Promega, Madison, WI, USA), as recommended by the manufacturer. The G-Luc activity was measured using 12 μM coelenterazine (Promega) in assay buffer (50 mM potassium phosphate, pH 7.4, 500 mM NaCl, 1 mM EDTA). Measurements were carried out using a GloMax 20/20 single tube luminometer (Promega) for 10 s. The F-Luc activity was normalized to the total protein amount determined using the Bradford assay reagent (Pierce, Waltham, MA, USA).

As for `COC(=O)N[C@@H](C(=O)N1CCC[C@H]1c1ncc(-c2cccc(C#CC#Cc3cccc(-c4cnc([C@@H]5CCCN5C(=O)[C@H](NC(=O)OC)c5ccccc5)[nH]4)c3)c2)[nH]1)c1ccccc1` [Compound 10a, Dimethyl ((1R,1′R)-((2S,2′S)-((buta-1,3-diyne-1,4-diylbis(3,1-phenylene))bis(1H-imidazole-5,2-diyl))bis(pyrrolidine-2,1-diyl))bis(2-oxo-1-phenylethane-2,1-diyl))dicarbamate], the “Gt1a SI” value in experiment [1] (HCV 1a (H77) full length) is more than 2792.52. For the same molecule, the EC50 – broadly, the concentration giving half of the maximal effect – in experiment [1] (Hepatitis C virus, Huh-7, 72 h, read-out: Gt1a EC50) is 35.8 nM; in experiment [3] (Hepatitis C virus, GT1B, Huh-5-2, RT-qPCR), 0.255 nM; in experiment [3] (RT-qPCR) it was 0.25 nM; in experiment [4], 128 nM; in experiment [5] (Hepatitis C virus, Huh-5-2, 72 h, read-out: HCV Replicon 1b EC50, Huh5-2 cells, Con1 strain, F-Luc, 72 h) it was 0.1 nM; in experiment [5] (Huh5-2 cells, Con1 strain, F-Luc, 72 h, read-out: HCV Replicon 1b EC50), 0.1 nM. Also, the NS5A protein expression result in experiment [2] is reported as “reduction of NS5A expression”.
